Laboratory results: ChEMBL document CHEMBL5150062, “Computational design, synthesis and biological evaluation of PDE5 inhibitors based on N2,N4-diaminoquinazoline and N2,N6-diaminopurine scaffolds” (Bioorg Med Chem, 2022)
Values after ≈ are worked out from the molar mass of the structure shown.

What was measured:
[1] = biological target: T1, cGMP-specific 3',5'-cyclic phosphodiesterase (Homo sapiens, UniProt O76074); experiment: Inhibition of human PDE5 using [3H]cGMP as substrate incubated for 10 mins by liquid scintillation counter analysis
[2] = biological target: T1, cGMP-specific 3',5'-cyclic phosphodiesterase; experiment: Inhibition of human PDE5 using [3H]cGMP as substrate at 1 uM incubated for 10 mins by liquid scintillation counter analysis relative to control
[3] = Aqueous solubility of the compound in pH 7.4 PBS measured after 7 hrs by HPLC-UV analysis; format: physicochemical; conditions: for solubility at 7 h: PBS, pH 7.4
[4] = 1-Octanol/PBS partition coefficient, logD of the compound at pH 7.4 incubated for 7 hrs by shake flask technique based HPLC-UV analysis; format: physicochemical
[5] = species on record: Bos taurus; experiment: Inhibition of bovine heart PDE1 using [3H]cGMP as substrate at 10 uM incubated for 10 mins by liquid scintillation counter analysis relative to control
[6] = Inhibition of bovine heart PDE1 using [3H]cGMP as substrate incubated for 10 mins by liquid scintillation counter analysis; set-up: species or system Bos taurus
[7] = Selectivity index, ratio of IC50 for inhibition of bovine heart PDE1to IC50 for inhibition of human PDE5

| IC50 [1] [nM] | inhibition [2] [%] | SMILES | further results |
| --- | --- | --- | --- |
| 28500 | 96 | CC(C)CNc1nc(Nc2ccc(S(=O)(=O)N3CCN(C)CC3)cc2)nc2c1ncn2C | – |
| 5230 | 94.9 | COc1cc2nc(Nc3cccc(S(N)(=O)=O)c3)nc(NCC(C)C)c2cc1OC | – |
| 430 | 97.3 | CC(C)CNc1nc(Nc2cccc(S(=O)(=O)N3CCN(C)CC3)c2)nc2ccccc12 | solubility at 7 h [3]: 0.6 µg/mL (≈ 1.32 µM); logD at 7 h [4]: 3.55; inhibition [5]: 67.2% |
| – | 69 | CN1CCN(S(=O)(=O)c2cccc(Nc3nc(NCc4ccccc4)c4ncn(C)c4n3)c2)CC1 | – |
| 9390 | 72.2 | CN(C)CCNc1nc(Nc2cccc(S(N)(=O)=O)c2)nc2ccccc12 | – |
| 4460 | 86.1 | Cn1cnc2c(NCc3ccccc3)nc(Nc3cccc(S(N)(=O)=O)c3)nc21 | – |
| 100 | 101 | NS(=O)(=O)c1cccc(Nc2nc(NCc3ccccc3)c3ccccc3n2)c1 | solubility at 7 h [3]: 2.1 µg/mL (≈ 5.18 µM); logD at 7 h [4]: 3.87; IC50 [6]: 11.8 µM; Ratio IC50 [7]: 100; inhibition [5]: 73.9% |
| 600 | 96.9 | CCCNc1nc(Nc2cccc(S(=O)(=O)N3CCN(C)CC3)c2)nc2ccccc12 | – |
| 490 | 96.5 | CN1CCN(S(=O)(=O)c2ccc(Nc3nc(NCc4ccccc4)c4ccccc4n3)cc2)CC1 | – |
| 33300 | 91.8 | CC(C)CNc1nc(Nc2cccc(S(=O)(=O)N3CCN(C)CC3)c2)nc2c1ncn2C | – |
| 360 | 99 | CC(C)CNc1nc(Nc2ccc(S(=O)(=O)N3CCN(C)CC3)cc2)nc2ccccc12 | solubility at 7 h [3]: 3 µg/mL (≈ 6.6 µM); logD at 7 h [4]: 3.68; inhibition [5]: 44.8% |
| 520 | 93.9 | CN1CCN(S(=O)(=O)c2cccc(Nc3nc(NCc4cccs4)c4ccccc4n3)c2)CC1 | – |
| – | 32.7 | CC(C)N1CCC(Nc2nc(Nc3cccc(S(N)(=O)=O)c3)nc3[nH]cnc23)CC1 | – |
| 150 | 93.6 | CC(C)N1CCC(Nc2nc(Nc3cccc(S(=O)(=O)N4CCN(C)CC4)c3)nc3ccccc23)CC1 | solubility at 7 h [3]: 1770 µg/mL (≈ 3380 µM); logD at 7 h [4]: 2.15; inhibition [5]: 28.2% |
| 3410 | 79.3 | COc1cc2nc(Nc3cccc(S(N)(=O)=O)c3)nc(NC3CCN(C(C)C)CC3)c2cc1OC | – |
| 18900 | 93.6 | CCCNc1nc(Nc2ccc(S(=O)(=O)N3CCN(C)CC3)cc2)nc2c1ncn2C | – |

| IC50 [1] [nM] | inhibition [2] [%] | SMILES | further results |
| --- | --- | --- | --- |
| 500 | 98.3 | CN1CCN(S(=O)(=O)c2cccc(Nc3nc(NCc4ccccc4)c4ccccc4n3)c2)CC1 | – |
| 1440 | 91.6 | CCCNc1nc(Nc2cccc(S(N)(=O)=O)c2)nc2cc(OC)c(OC)cc12 | – |
| 23000 | 96.5 | Cn1cnc2c(NCc3ccccc3)nc(Nc3ccc(S(N)(=O)=O)cc3)nc21 | – |
| – | – | CCCc1nn(C)c2c(=O)[nH]c(-c3cc(S(=O)(=O)N4CCN(C)CC4)ccc3OCC)nc12 | solubility ([3]; buffer, pH 7.4, 7 h): 0.18 mg/mL (≈ 379 µM); logD at 7 h [4]: 2.69 |
| 3970 | 94.6 | COc1cc2nc(Nc3ccc(S(N)(=O)=O)cc3)nc(NCC(C)C)c2cc1OC | – |
| 38400 | 97.3 | CN1CCN(S(=O)(=O)c2ccc(Nc3nc(NCc4ccccc4)c4ncn(C)c4n3)cc2)CC1 | – |
| 410 | 95.6 | CCCNc1nc(Nc2ccc(S(=O)(=O)N3CCN(C)CC3)cc2)nc2ccccc12 | solubility at 7 h [3]: 0.1 µg/mL (≈ 0.227 µM); logD at 7 h [4]: 3.92; inhibition [5]: 46.8% |
| 5280 | 75.3 | CN(C)CCNc1nc(Nc2cccc(S(=O)(=O)N3CCN(C)CC3)c2)nc2ccccc12 | – |
| 220 | 93.4 | NS(=O)(=O)c1cccc(Nc2nc(NC3CCN(Cc4ccccc4)CC3)c3ccccc3n2)c1 | solubility at 7 h [3]: 4.2 µg/mL (≈ 8.6 µM); logD at 7 h [4]: 3.37; inhibition [5]: 61.7% |
| 43200 | 93.6 | CCCNc1nc(Nc2cccc(S(=O)(=O)N3CCN(C)CC3)c2)nc2c1ncn2C | – |
| – | 18.5 | COc1cc2nc(Nc3cccc(S(=O)(=O)N4CCN(C)CC4)c3)nc(NC3CCN(C(C)C)CC3)c2cc1OC | – |
| 2020 | 99.3 | CN1CCN(S(=O)(=O)c2cccc(Nc3nc(NCc4ccccc4)c4nc[nH]c4n3)c2)CC1 | – |
| 1640 | 93.7 | COc1cc2nc(Nc3cccc(S(N)(=O)=O)c3)nc(NC3CCN(Cc4ccccc4)CC3)c2cc1OC | – |
| 290 | 94.3 | NS(=O)(=O)c1cccc(Nc2nc(NC3CCN(Cc4ccccc4)CC3)c3nc[nH]c3n2)c1 | solubility at 7 h [3]: 150 µg/mL (≈ 313 µM); logD at 7 h [4]: 2.16; inhibition [5]: 31.2% |
| 1030 | 96.3 | CC(C)N1CCC(Nc2nc(Nc3cccc(S(N)(=O)=O)c3)nc3ccccc23)CC1 | – |
